{
  "source": "paper PMC4742278",
  "about": "“BS69/ZMYND11 C-Terminal Domains Bind and Inhibit EBNA2” (PLoS Pathogens, 2016)",
  "key": {"BS69CC-MYND": {"molecular_target": "T1, BS69CC-MYND (Mus musculus, UniProt Q8R5C8)", "T1 construct": "His6-SUMO (N, cleaved yes); made in house; host or cells: E. coli BL21 (DE3) RIL", "T1 sequence (Q8R5C8 480-602)": "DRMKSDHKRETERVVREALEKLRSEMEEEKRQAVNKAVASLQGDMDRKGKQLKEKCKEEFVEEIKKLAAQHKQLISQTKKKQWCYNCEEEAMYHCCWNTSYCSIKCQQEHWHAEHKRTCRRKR", "assay": "ITC binding to BS69CC-MYND wild type", "conditions": "EBNA2_435–445, peptide titrated into BS69CC-MYND, 5°C, 20 mM Tris-HCl pH 7.5, 100 mM NaCl, 2 mM DTT, one-site fitting, read-out: dissociation constant (K d)", "description": "(§1) The DNA sequence encoding residues 440–562 (BS69CC-MYND) of mouse BS69/ZMYND11 was inserted into a modified PRSF-duet vector (Novagen), in which the BS69 fragments are separated from the preceding His6-SUMO tag by a ubiquitin-like protein (ULP1) cleavage site; and the DNA sequence encoding BS69 516–562 (BS69MYND) was inserted into a pGEX-6P-1 vector (GE Healthcare), preceded by a GST tag and a PreScission protease cleavage site. Note that the amino acid sequences of both fragments are identical to the corresponding regions of human BS69. The BS69MYND mutants were constructed by site-directed mutagenesis and confirmed by DNA sequencing. The plasmid was then transformed into BL21 (DE3) RIL cell strain for overexpression. The bacterial cells were grown at 37°C and induced by 0.4 mM isopropyl β-d-1-thiogalactopyranoside (IPTG) when the cells density reached an optical density (OD600) of 0.6. After induction, the cells continued to grow at 20°C for overnight. […]\n(§2) The EBNA2_381–389 peptide with an additional Gly-Tyr dipeptide at the C-terminus (NH2-SMPSLEPVLGY-CONH2), the EBNA2_435–445 peptide, and the EBNA2_381–445 peptide were used for ITC assays. […] The ITC data was analyzed with the Origin 7.0 software using a one-site fitting model."}, "BS69CC-MYND Q546A/W550A": {"system": "BS69CC-MYND Q546A/W550A", "assay": "ITC binding to BS69CC-MYND Q546A/W550A", "parameters": "species or system mouse", "conditions": "S1E Fig; ITC parameters could not be reliably determined", "description": "as §1, §2"}, "BS69MYND Q546A": {"system": "BS69MYND Q546A", "assay": "ITC binding to BS69MYND Q546A", "parameters": "species or system mouse", "description": "as §1, §2"}, "BS69CC-MYND Q546A": {"system": "BS69CC-MYND Q546A", "assay": "ITC binding to BS69CC-MYND Q546A", "parameters": "species or system mouse", "conditions": "S1D Fig; ITC parameters could not be reliably determined", "description": "as §1, §2"}, "BS69MYND": {"molecular_target": "T2, BS69MYND (Mus musculus, UniProt Q8R5C8)", "T2 construct": "GST (N, cleaved yes); made in house; host or cells: E. coli BL21 (DE3) RIL", "T2 sequence (Q8R5C8 556-602)": "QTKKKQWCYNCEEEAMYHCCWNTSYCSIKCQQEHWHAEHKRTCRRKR", "assay": "ITC binding to BS69MYND wild type", "conditions": "EBNA2_435–445, peptide titrated into BS69MYND, 5°C, 20 mM Tris-HCl pH 7.5, 100 mM NaCl, 2 mM DTT, one-site fitting, read-out: dissociation constant (K d)", "description": "as §1, §2"}, "BS69MYND W550A": {"system": "BS69MYND W550A", "assay": "ITC binding to BS69MYND W550A", "parameters": "species or system mouse", "conditions": "mutation W550A, EBNA2_381–389 peptide used with additional C-terminal Gly-Tyr", "description": "as §1, §2"}, "BS69MYND R560A": {"molecular_target": "T3, BS69MYND R560A (Mus musculus, UniProt Q8R5C8, R600A)", "T3 construct": "GST (N, cleaved yes); made in house; host or cells: E. coli BL21 (DE3) RIL", "T3 sequence (Q8R5C8 556-602 R600A)": "T2 sequence (Q8R5C8 556-602) with R45A", "assay": "ITC binding to BS69MYND R560A", "conditions": "versus BS69MYND wild type", "description": "as §1, §2"}, "BS69MYND Y532A": {"molecular_target": "T4, BS69MYND Y532A (Mus musculus, UniProt Q8R5C8, Y572A)", "T4 construct": "GST (N, cleaved yes); made in house; host or cells: E. coli BL21 (DE3) RIL", "T4 sequence (Q8R5C8 556-602 Y572A)": "T2 sequence (Q8R5C8 556-602) with Y17A", "assay": "ITC binding to BS69MYND Y532A", "conditions": "versus BS69MYND wild type", "description": "as §1, §2"}},
  "note": "Positions count from the first letter of the chain named. Ends that are not written are not given here.",
  "data": [
    {"substance": "EAPILFPDDWY-NH2 [EBNA2_435–445]", "values": [
      {"measurement": "Kd", "setting": "BS69CC-MYND", "result": 34.9, "unit": "µM"},
      {"measurement": "ITC heat measurements with BS69CC-MYND Q546A/W550A", "setting": "BS69CC-MYND Q546A/W550A", "result": "significantly lower than those of Fig 2H"},
      {"measurement": "effect of Q546A on binding affinity of BS69MYND-EBNA2_435–445 complex", "setting": "BS69MYND Q546A; BS69MYND Q546A", "result": "substantially decreases"},
      {"measurement": "ITC heat measurements with BS69CC-MYND Q546A", "setting": "BS69CC-MYND Q546A", "result": "significantly lower than those of Fig 2H"},
      {"measurement": "Kd", "setting": "BS69MYND", "result": 93.4, "unit": "µM"}
    ]},
    {"substance": "H-SMPSLEPVLGY-NH2 [EBNA2_381–389]", "values": [
      {"measurement": "interaction with BS69MYND W550A", "setting": "BS69MYND W550A", "result": "largely abolished the interaction"},
      {"measurement": "interaction with BS69MYND Q546A", "setting": "BS69MYND Q546A; mutation Q546A, EBNA2_381–389 peptide used with additional C-terminal Gly-Tyr", "result": "largely abolished the interaction"},
      {"measurement": "decrease of BS69MYND-EBNA2_381–389 binding by mutation R560A", "setting": "BS69MYND R560A", "result": "~10", "unit": "fold"},
      {"measurement": "decrease of BS69MYND-EBNA2_381–389 binding by mutation Y532A", "setting": "BS69MYND Y532A", "result": "about 3 fold"}
    ]}
  ]
}
